Experimental data taken from US20260207621A1 (Vividion Therapeutics, Inc., priority 2022, published 2026).

Key:
Nrf2 = Nrf2 antagonism assay: ARE luciferase reporter in KYSE-70 cells; assay type: cell-based; details: positive Imax corresponds to Nrf2 antagonism; for Emax: Homo sapiens, KYSE-70, KYSE-70 cells, read-out: KYSE70 Cellular ARE Luciferase Imax (%)
In short: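 KYSE-70 esophageal squamous carcinoma cells carrying Nrf2 W24C (constitutively Nrf2-high) with an ARE-driven luciferase reporter. Loss of luciferase signal reflects Nrf2 antagonism via KEAP1 C151 engagement. IC50 and Imax come from dose-response curves; positive Imax means antagonism.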

KEAP1 C151 = biological target: T1, KEAP1 C151 (Homo sapiens, UniProt Q14145); experiment: Nrf2 TMT measurement: in vitro TE50 for KEAP1 C151 (IA-DTB competition, targeted TMT mass spectrometry) in MDA-MB-468 cell lysate; assay type: binding; details: in vitro target engagement of KEAP1 C151, targeted TMT, read-out: KEAP1_C151 TE50
T1 construct: treating 500 μg of cell lysate generated from MDA-MB-468 breast cancer cells with DMSO or compound; endogenous in cells; host or cells: MDA-MB-468 breast cancer cell lysate
T1 sequence (Q14145 whole entry): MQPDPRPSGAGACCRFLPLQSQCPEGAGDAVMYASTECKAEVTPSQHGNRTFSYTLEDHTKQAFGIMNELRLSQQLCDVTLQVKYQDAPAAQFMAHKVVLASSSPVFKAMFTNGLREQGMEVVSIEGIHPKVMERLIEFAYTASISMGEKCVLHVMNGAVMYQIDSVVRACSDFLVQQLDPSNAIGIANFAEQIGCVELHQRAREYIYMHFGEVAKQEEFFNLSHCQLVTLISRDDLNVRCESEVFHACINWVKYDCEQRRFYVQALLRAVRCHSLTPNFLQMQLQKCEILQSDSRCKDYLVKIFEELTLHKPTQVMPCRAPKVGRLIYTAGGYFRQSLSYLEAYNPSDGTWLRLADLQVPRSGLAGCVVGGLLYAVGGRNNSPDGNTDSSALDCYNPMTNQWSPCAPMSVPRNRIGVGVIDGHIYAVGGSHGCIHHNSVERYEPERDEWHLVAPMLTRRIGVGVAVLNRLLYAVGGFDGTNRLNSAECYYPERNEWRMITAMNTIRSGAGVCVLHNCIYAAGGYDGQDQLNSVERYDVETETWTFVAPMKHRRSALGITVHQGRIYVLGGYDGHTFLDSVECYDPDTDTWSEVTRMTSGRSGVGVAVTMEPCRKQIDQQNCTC
In short: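 MDA-MB-468 lysate (500 μg) treated with compound for 1 h at room temperature, then 200 μM IA-DTB for 1 h. Labeled peptides streptavidin-enriched after trypsin digest, TMT-labeled and quantified by targeted MS3 on the KEAP1 C151 peptide. IC50 from dose-response curve fitting.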

Structure (SMILES)	IC50 (KEAP1 C151) [nM]	Emax (Nrf2) [%]	KYSE70 Cellular ARE Luciferase Imax (%) (Nrf2; KYSE-70 cells)
C=CC(=O)N1C[C@@H](C)N(C(=O)C2CC2)C[C@H]1c1cc(Cl)cc(-c2ncc(N)cn2)c1 (single isomer, unassigned) [Compound 245]	90	53	–
C=CC(=O)N1CCOC[C@H]1c1cc(Cl)cc(-c2ccncc2)c1 (single isomer, unassigned) [Compound 126]	50	72	–
C=CC(=O)N1CC[C@](C)(O)C[C@H]1c1cc(Cl)cc(-c2ncc(N)cn2)c1 (single isomer, unassigned) [Compound 265]	11200	51	–
C=CC(=O)N1CC2(CC2)OCC1(C)c1cc(Cl)cc(-c2ncc(F)cn2)c1 (single isomer, unassigned) [Compound 165, 1-(6-(3-chloro-5-(5-fluoropyrimidin-2-yl)phenyl)-6-methyl-4-oxa-7-azaspiro[2.5]octan-7-yl)prop-2-en-1-one]	330	53	–
C=CC(=O)N1CCOCC1c1cc(Cl)nc(-c2ccnc(C)n2)c1 (single isomer, unassigned) [Compound 121, 1-(3-(2-chloro-6-(2-methylpyrimidin-4-yl)pyridin-4-yl)morpholino)prop-2-en-1-one]	26	82	–
C=CC(=O)N1CCOCC1c1cc(C#N)cc(-c2ncccn2)c1 (single isomer, unassigned) [Compound 8, 3-(4-acryloylmorpholin-3-yl)-5-(pyrimidin-2-yl)benzonitrile]	55	53	–
C=CC(=O)N1[C@H](C)COC[C@H]1c1cc(Cl)cc(-c2ncnc(N)n2)c1 (single isomer, unassigned) [Compound 102]	43.2	92	–
C=CC(=O)N1CCOC[C@H]1c1cc(Cl)cc(C2CNC(=S)NC2)c1 (single isomer, unassigned) [Compound 233]	660	83	–
C=CC(=O)N1[C@H](C(=O)NC)COC[C@H]1c1cc(Cl)nc(-c2cc(N)ncn2)c1 (single isomer, unassigned) [Compound 173]	< 6.4	86	–
C=CC(=O)N1[C@H](C(=O)N(C)C)COC[C@H]1c1cc(Cl)nc(-c2cc(N)ncn2)c1 (single isomer, unassigned) [Compound 169]	70	82	–
C=C(C(=O)N1CCOC[C@H]1c1cc(Cl)cc(-c2ncnc(N)n2)c1)C(F)(F)F (single isomer, unassigned) [Compound 295]	200	88	–
C=CC(=O)N1CCOC[C@H]1c1cc(Cl)cc(-c2ncn(CC(N)=O)n2)c1 (single isomer, unassigned) [Compound 62]	220	55	–
C=CC(=O)N1CCN(C(C)=O)C[C@H]1c1cc(Cl)cc(C2CCOCC2)c1 (single isomer, unassigned) [Compound 26]	88	56	–
C=CC(=O)N1CC(C)(C)OCC1c1cc(Cl)nc(-c2cc(N)ncn2)c1 (single isomer, unassigned) [Compound 150, 1-(5-(2-(6-aminopyrimidin-4-yl)-6-chloropyridin-4-yl)-2,2-dimethylmorpholino)prop-2-en-1-one]	31	97	–
C=CC(=O)N1CC2(CC2)S(=O)(=O)CC1c1cc(Cl)cc(-c2nccc(N)n2)c1 (single isomer, unassigned) [Compound 249, 1-(6-(3-(4-aminopyrimidin-2-yl)-5-chlorophenyl)-4,4-dioxido-4-thin-7-azaspiro[2.5]octan-7-yl)prop-2-en-1-one]	5.3	89	–
C=CC(=O)N1CCOC[C@H]1c1cc(Cl)cc(-c2ncnc3[nH]cnc23)c1 (single isomer, unassigned) [Compound 58]	30.5	95	–
C=CC(=O)N1CCOC[C@H]1c1cc(Cl)cc(C2CCNC(=O)N2)c1 (single isomer, unassigned) [Compound 242]	250	59	–
C=CC(=O)N1[C@H](C)COC[C@H]1c1cc(Cl)cc(-c2ncnc3[nH]cnc23)c1 (single isomer, unassigned) [Compound 137]	25	92	–
C=CC(=O)N1CCC(F)(F)CC1c1cc(Cl)cc(-c2ccnc(C)n2)c1 (single isomer, unassigned) [Compound 281, 1-(2-(3-chloro-5-(2-methylpyrimidin-4-yl)phenyl)-4,4-difluoropiperidin-1-yl)prop-2-en-1-on]	61	84	–
C=CC(=O)N1CCOCC1c1cc(Cl)nc(-c2cc[nH]c(=O)c2)c1 (single isomer, unassigned) [Compound 33, 4-(4-acryloylmorpholin-3-yl)-6-chloro-[2,4′-bipyridin]-2′(1′H)-one]	120	82	–
C=CC(=O)N1CCOC[C@H]1c1cc(Cl)cc(C2CNC(=O)CO2)c1 (single isomer, unassigned) [Compound 232]	140	–	84
C=CC(=O)N1CCOCC1c1cc(Cl)nc(-c2ccc(F)c(C(N)=O)c2)c1 (single isomer, unassigned) [Compound 65, 5-(4-(4-acryloylmorpholin-3-yl)-6-chloropyridin-2-y1)-2-fluorobenzamide]	24	88	–
C=CC(=O)N1CC2(CC2)N(C(=O)C2CC2)CC1c1cc(Cl)cc(-c2ncc(N)cn2)c1 (single isomer, unassigned) [Compound 267]	10	94	–
C=CC(=O)N1CCN(C(C)=O)C[C@H]1c1cc(Cl)cc(-c2cc(N)ncn2)c1 (single isomer, unassigned) [Compound 187]	120	71	–
C=CC(=O)N1CCOC[C@H]1c1cc(Cl)cc(N2CCNC(=O)C2)c1 (single isomer, unassigned) [Compound 228]	130	79	–
C=CC(=O)N1CCOCC1c1cc(Cl)cc(-c2cc(C(N)=O)ccc2F)c1 (single isomer, unassigned) [Compound 60, 3′-(4-acryloylmorpholin-3-yl)-5′-chloro-6-fluoro-[1,1′-biphenyl]-3-carboxamide]	58	70	–
C=CC(=O)N1CC(C)(C)OC[C@H]1c1cc(Cl)cc(-c2ccnc(N)n2)c1 (single isomer, unassigned) [Compound 148]	51	93	–

Further lines, with some results ahead:

IC50 (KEAP1 C151) [nM]	Structure (SMILES)	Emax (Nrf2) [%]	KYSE70 Cellular ARE Luciferase Imax (%) (Nrf2; KYSE-70 cells)
50	C=CC(=O)N1CCOC[C@H]1c1cc(Cl)cc(-c2cnc(N)c(OC)n2)c1 (single isomer, unassigned) [Compound 255]	93	–
100	C=CC(=O)N1CCOC[C@H]1c1cc(Cl)cc(-c2ncnc(NC)n2)c1 (single isomer, unassigned) [Compound 214]	93	–
170	C=CC(=O)N1CCOC[C@H]1c1cc(Cl)cc(-c2nc(C(N)=O)co2)c1 (single isomer, unassigned) [Compound 224]	90	–
17	C=CC(=O)N1CCOC[C@H]1c1cc(Cl)cc(-c2ncc(OC)cn2)c1 (single isomer, unassigned) [Compound 103]	85	–
40	C=CC(=O)N1CCOC[C@H]1c1cc(Cl)cc(-c2nc(C)cc(C)n2)c1 (single isomer, unassigned) [Compound 93]	91	–
59	C=CC(=O)N1CCOC[C@H]1c1cc(Cl)cc(-c2cc(N)nc(Cl)n2)c1 (single isomer, unassigned) [Compound 271]	93	–
52	C=CC(=O)N1CCOC[C@H]1c1cc(Cl)cc(-c2ccnc(N)c2)c1 (single isomer, unassigned) [Compound 136]	81	–
18	C=CC(=O)N1CCOC[C@H]1c1cc(Cl)cc(-c2cc(N)nc(F)n2)c1 (single isomer, unassigned) [Compound 283]	94	–
290	C=CC(=O)N1CCOC[C@H]1c1cc(Cl)cc(-c2cc(N)ncn2)c1 (single isomer, unassigned) [Compound 80]	94	–
36	C=CC(=O)N1CCOC[C@H]1c1cc(Cl)cc(-c2cc(OC)ccn2)c1 (single isomer, unassigned) [Compound 105]	92	–
950	C=CC(=O)N1CCOC[C@H]1c1cc(Cl)cc(-c2c[nH]nn2)c1 (single isomer, unassigned) [Compound 269]	72	–
120	C=CC(=O)N1CCOC[C@H]1c1cc(Cl)cc(-c2ccnc(C)c2)c1 (single isomer, unassigned) [Compound 90]	81	–
27	C=CC(=O)N1CCOCC1c1cc(Cl)cc(-c2cc(C)ncn2)c1 (single isomer, unassigned) [Compound 38, 1-(3-(3-chloro-5-(6-methylpyrimidin-4-yl)phenyl)morpholino)prop-2-en-1-one]	89	–
17	C=CC(=O)N1CCOC[C@H]1c1cc(Cl)cc(-c2cnc(N)cn2)c1 (single isomer, unassigned) [Compound 251]	93	–
470	C=CC(=O)N1CCOC[C@H]1c1cc(Cl)cc(-c2cnc(=O)n(C)c2)c1 (single isomer, unassigned) [Compound 213]	75	–
19	C=CC(=O)N1CCOC[C@H]1c1cc(Cl)cc(-c2ncc(F)c(N)n2)c1 (single isomer, unassigned) [Compound 263]	93	–
